Calls of active or inactive are those of the source.
Key:
Leucine aminopeptidase = target: T1, Leucine aminopeptidase (Plasmodium falciparum 3D7, UniProt Q8IL11); assay: P. falciparum M17LAP inhibitors, primary screen, biochemical, fluorogenic H-Leu-NHMec substrate, 1536-well (AID 1619); assay type: functional
T1 sequence (Q8IL11 whole entry): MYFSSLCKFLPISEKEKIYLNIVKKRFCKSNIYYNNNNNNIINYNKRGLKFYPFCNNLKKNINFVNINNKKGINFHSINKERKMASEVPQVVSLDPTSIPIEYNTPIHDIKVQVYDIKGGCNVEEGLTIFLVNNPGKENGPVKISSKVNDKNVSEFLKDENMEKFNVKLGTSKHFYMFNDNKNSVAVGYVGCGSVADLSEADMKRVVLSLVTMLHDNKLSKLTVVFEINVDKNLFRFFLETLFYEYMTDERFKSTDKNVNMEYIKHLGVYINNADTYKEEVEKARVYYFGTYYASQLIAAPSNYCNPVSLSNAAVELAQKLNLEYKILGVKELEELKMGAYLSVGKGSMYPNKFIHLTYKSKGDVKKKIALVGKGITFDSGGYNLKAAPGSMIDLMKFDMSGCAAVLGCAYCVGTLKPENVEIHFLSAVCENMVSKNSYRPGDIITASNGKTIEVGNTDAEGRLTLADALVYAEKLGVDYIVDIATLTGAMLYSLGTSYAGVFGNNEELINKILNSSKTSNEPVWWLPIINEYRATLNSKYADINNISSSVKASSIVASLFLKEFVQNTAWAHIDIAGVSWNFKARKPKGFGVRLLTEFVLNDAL

Prothrombin = Prothrombin (Homo sapiens, UniProt P00734); assay: Thrombin 1536 HTS Dose Response Confirmation. [Related pubchem assays: 1046 (Thrombin 1536 HTS; hits were confirmed in this assay)]; assay type: functional
[1] = cytotoxicity in HEK-293T cells, dose response, cytotoxicity control for BCR NF-kB inhibitor project, luminescence, B-cell screen hits (AID 489021); assay type: functional, cell-based;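 also: HEK-293T cells carrying an NF-kB luciferase reporter; cells exposed to compound for about 14 hours before viability readout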
[2] = inhibitors of intracellular T. cruzi replication, confirmation, NIH3T3 host cells, beta-gal luminescence (AID 2044); assay type: functional, cell-based;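 also: intracellular parasites grown in NIH/3T3 mouse fibroblasts as host cells; luminescent beta-galactosidase reporter signal from transgenic T. cruzi replicating inside host cells; inhibitors lower the luminescence signal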
[3] = cytotoxicity toward NIH3T3 fibroblasts, dose response, counter-screen, cell-based, ATP luminescence, mouse fibroblasts (AID 2010); assay type: functional;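 also: cells exposed to compound for about 90 hours before reading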
[4] = target: T2, Histone-lysine N-methyltransferase NSD2 (Homo sapiens, UniProt O96028); assay type: biochemical
T2 sequence (O96028 whole entry): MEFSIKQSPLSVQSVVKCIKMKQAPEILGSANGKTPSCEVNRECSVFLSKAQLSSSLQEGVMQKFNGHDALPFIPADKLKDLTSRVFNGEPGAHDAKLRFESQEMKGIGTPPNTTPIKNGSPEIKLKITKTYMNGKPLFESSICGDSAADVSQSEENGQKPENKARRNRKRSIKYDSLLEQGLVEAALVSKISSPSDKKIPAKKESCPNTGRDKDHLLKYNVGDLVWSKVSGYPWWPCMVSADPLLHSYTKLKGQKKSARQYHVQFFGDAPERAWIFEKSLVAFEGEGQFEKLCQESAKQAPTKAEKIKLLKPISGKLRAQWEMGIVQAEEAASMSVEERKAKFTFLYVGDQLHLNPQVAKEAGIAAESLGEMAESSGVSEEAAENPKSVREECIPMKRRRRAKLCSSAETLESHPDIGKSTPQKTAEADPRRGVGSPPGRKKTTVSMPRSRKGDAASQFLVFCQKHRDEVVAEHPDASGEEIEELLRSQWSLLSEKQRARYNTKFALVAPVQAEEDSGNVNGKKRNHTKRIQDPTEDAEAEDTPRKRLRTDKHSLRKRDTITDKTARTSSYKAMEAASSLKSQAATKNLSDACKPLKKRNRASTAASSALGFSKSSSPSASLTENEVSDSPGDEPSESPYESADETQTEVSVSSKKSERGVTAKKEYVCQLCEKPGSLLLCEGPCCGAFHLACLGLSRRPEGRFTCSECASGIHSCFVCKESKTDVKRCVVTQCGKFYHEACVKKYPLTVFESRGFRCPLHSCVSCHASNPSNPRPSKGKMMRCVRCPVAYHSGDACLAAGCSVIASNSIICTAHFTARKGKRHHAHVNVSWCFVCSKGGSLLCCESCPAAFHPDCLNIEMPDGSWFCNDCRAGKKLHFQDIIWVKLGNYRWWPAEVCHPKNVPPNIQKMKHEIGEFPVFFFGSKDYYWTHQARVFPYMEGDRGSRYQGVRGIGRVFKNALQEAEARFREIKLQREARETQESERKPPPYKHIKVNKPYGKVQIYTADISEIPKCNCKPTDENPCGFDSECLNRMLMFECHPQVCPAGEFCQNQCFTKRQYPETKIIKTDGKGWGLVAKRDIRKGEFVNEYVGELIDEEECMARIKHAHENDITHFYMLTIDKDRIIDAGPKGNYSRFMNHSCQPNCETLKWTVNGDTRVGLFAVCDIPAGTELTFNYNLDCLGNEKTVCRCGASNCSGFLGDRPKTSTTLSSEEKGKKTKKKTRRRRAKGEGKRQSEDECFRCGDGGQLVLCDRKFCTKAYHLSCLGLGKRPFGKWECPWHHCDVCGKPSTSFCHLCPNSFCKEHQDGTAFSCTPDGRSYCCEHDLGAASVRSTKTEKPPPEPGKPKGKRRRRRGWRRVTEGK

HEK293 = assay: inhibitors of LMP1-driven NF-kB reporter, dose response, cell-based, HEK293, luciferase, cherry-pick (AID 588343); assay type: functional; settings: Homo sapiens
[5] = Luminescence Cell-Based Dose Confirmation HTS to Identify Activators of 5'UTR Stem-Loop Driven Alpha-Synuclein mRNA Translation in H4 Neuroglioblastoma Cells. [Related pubchem assays: 1829 (Project Summary), 1814 (Primary HTS)]; assay type: functional
[6] = Luminescence Cell-Based Dose Response HTS to Identify Activators of Luciferase Translation or Activity in H4 […] Cells. [Related pubchem assays: 1829 (Project Summary), 1814 (Primary HTS)]; assay type: functional
H4 = assay: Luminescence Cell-Based Dose Response HTS to Identify Activators of 5'UTR Stem-Loop Driven Prion Protein mRNA Translation in H4 Neuroglioblastoma Cells. [Related pubchem assays: 1829 (Project Summary), 1814 (Primary HTS)]; assay type: functional; settings: Homo sapiens
[7] = target: Glucose-6-phosphate 1-dehydrogenase (Homo sapiens, UniProt P11413); assay: human G6PD enzyme inhibitors, dose response, selectivity assay for P. falciparum G6PD inhibitor project, biochemical, fluorescence (AID 504792); assay type: functional
[8] = Shn3 3'UTR reporter inhibitors, dose response, cell-based, Clone20 osteoblasts, firefly luciferase, cherry-picked (AID 624132); assay type: functional;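 also: firefly luciferase luminescence from reporter carrying the Shn3 3'UTR in osteoblasts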
[9] = HepG2 cell cytotoxicity, dose response, cytotoxicity control for Shn3 inhibitor project, CellTiter-Glo, cherry-picked (AID 624134); assay type: functional, cell-based
[10] = control 3'UTR Renilla luciferase suppression, dose response, counter-screen for Shn3 inhibitor project, cell-based, Clone20-Shn3RL, cherry-picked (AID 624133); assay type: functional
Fatty acid synthase [11] = target: T3, Fatty acid synthase (Homo sapiens, UniProt P49327); assay: FAS thioesterase domain inhibitors, dose response, biochemical, endpoint fluorescence intensity, uHTS hits (AID 624327); assay type: functional;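 also: fluorescence from hydrolysis of an O-methyl fluorescein acyl ester substrate by the enzyme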
Fatty acid synthase [12] = target: T3, Fatty acid synthase; assay: FAS thioesterase domain inhibitors, dose response, biochemical, kinetic fluorescence intensity (AID 624326); assay type: functional;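 also: rate of fluorescence rise from hydrolysis of a fluorogenic O-methyl fluorescein ester substrate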
SUMO-activating enzyme = SUMO-activating enzyme (Homo sapiens, UniProt Q9UBT2); assay: SUMOylation inhibitor hit validation, confirmation, SUMOylation inhibitor project, biochemical, AlphaScreen (AID 2018); assay type: functional
[13] = target: T4, Corticotropin-releasing factor receptor 2/Corticotropin-releasing factor-binding protein (Homo sapiens, UniProt P24387+Q13324); assay: Dose Response confirmation of uHTS hits for small molecule antagonists of the CRF-binding protein and CRF-R2 receptor complex.; assay type: functional; settings: read-out: IC50_Mean
T4 sequence (Q13324 whole entry): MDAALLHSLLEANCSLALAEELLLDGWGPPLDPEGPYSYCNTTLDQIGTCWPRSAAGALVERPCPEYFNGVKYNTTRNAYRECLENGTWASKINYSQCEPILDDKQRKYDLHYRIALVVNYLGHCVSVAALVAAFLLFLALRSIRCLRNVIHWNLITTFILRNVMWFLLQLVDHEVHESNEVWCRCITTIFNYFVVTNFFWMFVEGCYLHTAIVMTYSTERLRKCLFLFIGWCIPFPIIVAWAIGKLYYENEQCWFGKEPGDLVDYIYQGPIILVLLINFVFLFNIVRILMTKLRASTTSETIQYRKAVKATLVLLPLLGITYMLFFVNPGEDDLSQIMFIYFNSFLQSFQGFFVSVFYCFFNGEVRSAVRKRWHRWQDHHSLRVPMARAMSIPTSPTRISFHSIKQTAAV
T4 sequence (P24387 whole entry): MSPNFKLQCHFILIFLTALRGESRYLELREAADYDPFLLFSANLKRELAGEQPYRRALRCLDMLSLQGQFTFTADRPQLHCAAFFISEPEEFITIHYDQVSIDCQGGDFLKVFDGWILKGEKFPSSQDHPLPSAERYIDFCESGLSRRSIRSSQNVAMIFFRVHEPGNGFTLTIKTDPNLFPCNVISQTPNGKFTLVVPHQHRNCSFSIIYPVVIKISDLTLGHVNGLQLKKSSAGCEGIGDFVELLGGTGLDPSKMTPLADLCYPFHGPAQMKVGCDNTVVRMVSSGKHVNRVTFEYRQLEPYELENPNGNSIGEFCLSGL

[14] = target: T4, Corticotropin-releasing factor receptor 2/Corticotropin-releasing factor-binding protein; assay: activators of CRF receptor 2 with binding protein – uHTS hits, confirmation (AID 602473); assay type: functional; settings: read-out: EC50_Mean
[15] = HEp-2 cell cytotoxicity, dose response, cytotoxicity control for RSV inhibitor project, HTS (AID 2410); assay type: functional; settings: human respiratory syncytial virus
Cytochrome P450 2C9 = Cytochrome P450 2C9 (Homo sapiens, UniProt P11712)
[16] = target: DNA dC->dU-editing enzyme APOBEC-3G (Homo sapiens, UniProt Q9HC16); assay: Dose Response confirmation of small molecule APOBEC3G DNA Deaminase Inhibitors via a fluorescence-based single-stranded DNA deaminase assay. [Related pubchem assays (depositor defined):AID493012, AID493028]; assay type: functional
Sequence of DNA dC->dU-editing enzyme APOBEC-3G (Q9HC16 whole entry): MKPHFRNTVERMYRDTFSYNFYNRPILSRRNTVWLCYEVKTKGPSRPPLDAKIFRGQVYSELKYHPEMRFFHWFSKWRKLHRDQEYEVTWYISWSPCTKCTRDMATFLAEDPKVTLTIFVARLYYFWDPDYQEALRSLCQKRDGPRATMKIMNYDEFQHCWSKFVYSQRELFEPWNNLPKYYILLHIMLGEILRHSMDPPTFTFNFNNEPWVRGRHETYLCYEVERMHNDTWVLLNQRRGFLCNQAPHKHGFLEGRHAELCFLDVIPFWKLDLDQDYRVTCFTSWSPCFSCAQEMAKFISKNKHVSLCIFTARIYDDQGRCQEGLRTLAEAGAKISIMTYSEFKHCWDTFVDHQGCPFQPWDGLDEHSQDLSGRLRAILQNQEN

T3 sequence (P49327 whole entry, the tested form may be a part): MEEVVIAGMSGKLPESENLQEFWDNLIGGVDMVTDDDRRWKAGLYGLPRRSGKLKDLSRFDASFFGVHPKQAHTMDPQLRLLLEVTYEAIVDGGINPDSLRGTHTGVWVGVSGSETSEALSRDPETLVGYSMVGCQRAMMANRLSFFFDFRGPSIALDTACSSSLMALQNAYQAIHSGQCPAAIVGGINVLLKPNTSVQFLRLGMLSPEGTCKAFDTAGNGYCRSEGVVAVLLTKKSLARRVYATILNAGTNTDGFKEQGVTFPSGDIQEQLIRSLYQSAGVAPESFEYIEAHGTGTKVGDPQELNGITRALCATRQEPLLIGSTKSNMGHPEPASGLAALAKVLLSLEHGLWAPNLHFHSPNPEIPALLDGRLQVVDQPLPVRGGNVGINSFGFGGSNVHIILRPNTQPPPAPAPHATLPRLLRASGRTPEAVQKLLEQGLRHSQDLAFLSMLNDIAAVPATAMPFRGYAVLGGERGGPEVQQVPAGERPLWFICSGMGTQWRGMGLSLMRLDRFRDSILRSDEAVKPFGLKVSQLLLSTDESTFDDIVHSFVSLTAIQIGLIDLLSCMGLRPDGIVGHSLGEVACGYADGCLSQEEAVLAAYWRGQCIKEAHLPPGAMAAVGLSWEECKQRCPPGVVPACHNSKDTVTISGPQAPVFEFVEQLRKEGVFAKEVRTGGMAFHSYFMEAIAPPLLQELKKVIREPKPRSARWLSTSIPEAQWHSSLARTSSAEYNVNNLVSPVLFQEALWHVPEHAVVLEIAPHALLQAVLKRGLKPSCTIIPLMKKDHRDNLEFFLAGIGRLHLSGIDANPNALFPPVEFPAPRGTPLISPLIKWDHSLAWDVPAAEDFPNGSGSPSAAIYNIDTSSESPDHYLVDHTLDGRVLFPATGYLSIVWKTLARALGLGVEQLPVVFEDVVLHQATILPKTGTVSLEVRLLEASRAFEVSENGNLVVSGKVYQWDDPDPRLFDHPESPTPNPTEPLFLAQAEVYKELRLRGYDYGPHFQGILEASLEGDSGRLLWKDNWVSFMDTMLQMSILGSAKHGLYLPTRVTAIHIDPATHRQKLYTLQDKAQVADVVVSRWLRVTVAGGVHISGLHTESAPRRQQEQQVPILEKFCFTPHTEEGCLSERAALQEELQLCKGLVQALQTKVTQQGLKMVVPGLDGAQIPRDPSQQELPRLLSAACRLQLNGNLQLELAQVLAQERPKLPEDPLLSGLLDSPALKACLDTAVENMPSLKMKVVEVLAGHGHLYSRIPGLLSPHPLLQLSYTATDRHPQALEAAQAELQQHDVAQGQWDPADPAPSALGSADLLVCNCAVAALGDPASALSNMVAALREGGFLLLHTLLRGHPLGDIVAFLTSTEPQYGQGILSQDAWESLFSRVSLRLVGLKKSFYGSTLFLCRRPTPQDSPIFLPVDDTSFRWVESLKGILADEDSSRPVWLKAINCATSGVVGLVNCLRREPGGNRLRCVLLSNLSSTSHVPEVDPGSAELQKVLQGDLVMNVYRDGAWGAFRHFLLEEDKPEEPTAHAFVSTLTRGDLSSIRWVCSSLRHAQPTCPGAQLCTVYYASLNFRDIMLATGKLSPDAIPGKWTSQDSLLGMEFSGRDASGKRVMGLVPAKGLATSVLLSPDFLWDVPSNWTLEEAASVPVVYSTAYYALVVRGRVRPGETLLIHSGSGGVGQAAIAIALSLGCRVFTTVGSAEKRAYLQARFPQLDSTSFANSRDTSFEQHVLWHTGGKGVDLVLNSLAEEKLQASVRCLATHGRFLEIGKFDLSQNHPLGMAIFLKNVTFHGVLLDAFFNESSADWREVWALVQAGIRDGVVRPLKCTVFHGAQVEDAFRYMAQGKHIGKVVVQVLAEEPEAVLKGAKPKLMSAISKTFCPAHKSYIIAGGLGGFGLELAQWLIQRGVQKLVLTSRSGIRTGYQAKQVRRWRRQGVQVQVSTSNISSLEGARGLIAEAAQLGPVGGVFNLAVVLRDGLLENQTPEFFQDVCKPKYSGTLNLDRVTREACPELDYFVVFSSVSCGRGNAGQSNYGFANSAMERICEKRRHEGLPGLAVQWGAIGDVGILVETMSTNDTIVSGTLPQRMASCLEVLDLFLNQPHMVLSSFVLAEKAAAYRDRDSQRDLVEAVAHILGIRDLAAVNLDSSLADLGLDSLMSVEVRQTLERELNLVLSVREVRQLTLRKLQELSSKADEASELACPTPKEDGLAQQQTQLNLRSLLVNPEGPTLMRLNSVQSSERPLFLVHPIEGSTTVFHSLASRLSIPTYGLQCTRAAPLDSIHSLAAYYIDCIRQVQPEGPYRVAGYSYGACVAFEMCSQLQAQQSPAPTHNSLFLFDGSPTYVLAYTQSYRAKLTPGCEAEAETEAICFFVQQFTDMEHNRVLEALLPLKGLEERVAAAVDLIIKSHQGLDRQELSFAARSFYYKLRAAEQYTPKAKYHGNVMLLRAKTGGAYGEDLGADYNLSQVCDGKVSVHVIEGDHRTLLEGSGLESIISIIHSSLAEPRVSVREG
Sequence of SUMO-activating enzyme (Q9UBE0 whole entry): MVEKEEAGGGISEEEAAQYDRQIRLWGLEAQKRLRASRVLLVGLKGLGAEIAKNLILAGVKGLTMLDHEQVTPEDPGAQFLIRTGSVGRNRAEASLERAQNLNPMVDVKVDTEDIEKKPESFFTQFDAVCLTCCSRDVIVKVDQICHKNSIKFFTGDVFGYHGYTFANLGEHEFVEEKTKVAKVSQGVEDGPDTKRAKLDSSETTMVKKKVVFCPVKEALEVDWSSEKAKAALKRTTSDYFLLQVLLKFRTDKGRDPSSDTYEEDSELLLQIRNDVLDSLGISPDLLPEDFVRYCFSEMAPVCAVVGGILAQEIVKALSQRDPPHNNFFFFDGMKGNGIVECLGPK
Sequence of SUMO-activating enzyme (Q9UBT2 whole entry): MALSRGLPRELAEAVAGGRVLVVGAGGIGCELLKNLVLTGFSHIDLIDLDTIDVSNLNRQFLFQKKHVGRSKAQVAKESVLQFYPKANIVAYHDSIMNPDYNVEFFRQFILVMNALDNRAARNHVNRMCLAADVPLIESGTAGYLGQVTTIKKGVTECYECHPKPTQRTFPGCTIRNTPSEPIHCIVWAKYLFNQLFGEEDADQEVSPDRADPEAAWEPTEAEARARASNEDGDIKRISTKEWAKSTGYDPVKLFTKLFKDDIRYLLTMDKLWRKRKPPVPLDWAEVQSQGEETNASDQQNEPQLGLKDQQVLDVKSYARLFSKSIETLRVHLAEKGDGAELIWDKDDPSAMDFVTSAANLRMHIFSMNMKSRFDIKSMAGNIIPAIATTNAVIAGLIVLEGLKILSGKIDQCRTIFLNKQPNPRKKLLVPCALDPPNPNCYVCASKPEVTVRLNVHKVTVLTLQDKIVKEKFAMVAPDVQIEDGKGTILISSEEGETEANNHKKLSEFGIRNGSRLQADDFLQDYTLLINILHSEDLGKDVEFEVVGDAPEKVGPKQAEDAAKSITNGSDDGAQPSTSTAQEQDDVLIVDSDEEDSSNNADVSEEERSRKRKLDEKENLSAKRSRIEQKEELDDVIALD
Sequence of Glucose-6-phosphate 1-dehydrogenase (P11413 whole entry): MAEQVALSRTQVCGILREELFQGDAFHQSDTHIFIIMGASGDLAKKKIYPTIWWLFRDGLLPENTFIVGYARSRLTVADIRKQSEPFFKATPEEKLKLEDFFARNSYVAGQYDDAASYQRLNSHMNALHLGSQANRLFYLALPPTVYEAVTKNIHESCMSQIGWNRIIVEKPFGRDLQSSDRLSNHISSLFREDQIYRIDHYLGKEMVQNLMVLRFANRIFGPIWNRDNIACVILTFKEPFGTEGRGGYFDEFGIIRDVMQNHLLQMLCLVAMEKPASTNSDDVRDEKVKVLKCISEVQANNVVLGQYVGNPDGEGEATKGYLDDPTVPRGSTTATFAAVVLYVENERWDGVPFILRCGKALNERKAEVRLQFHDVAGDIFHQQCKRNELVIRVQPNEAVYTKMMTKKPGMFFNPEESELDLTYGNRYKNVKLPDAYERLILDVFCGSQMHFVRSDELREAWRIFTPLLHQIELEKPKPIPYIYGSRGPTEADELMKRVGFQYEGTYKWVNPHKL
Sequence of Cytochrome P450 2C9 (P11712 whole entry): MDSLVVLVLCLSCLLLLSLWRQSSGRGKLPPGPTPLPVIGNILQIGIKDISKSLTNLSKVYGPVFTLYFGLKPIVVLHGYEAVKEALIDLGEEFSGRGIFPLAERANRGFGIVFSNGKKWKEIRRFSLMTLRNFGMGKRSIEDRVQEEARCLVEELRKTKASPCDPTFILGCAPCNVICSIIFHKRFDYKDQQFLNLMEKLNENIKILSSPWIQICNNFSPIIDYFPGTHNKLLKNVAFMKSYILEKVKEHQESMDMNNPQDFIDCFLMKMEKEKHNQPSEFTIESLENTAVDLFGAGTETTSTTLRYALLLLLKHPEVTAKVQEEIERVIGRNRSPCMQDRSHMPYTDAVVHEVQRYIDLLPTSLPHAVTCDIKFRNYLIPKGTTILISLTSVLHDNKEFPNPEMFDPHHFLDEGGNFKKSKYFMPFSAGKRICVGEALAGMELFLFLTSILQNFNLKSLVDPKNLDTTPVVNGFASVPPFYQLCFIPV

With `Cc1c(O)ccc(-c2[nH]ncc2-c2nc3ccccc3s2)c1O` as the compound, how does the IC50 (Leucine aminopeptidase) read?
The IC50 was 6.97 µM (active).

Which IC50 (Prothrombin) does the source give for `CC(C(=O)NCc1ccccn1)N1C(=O)c2ccccc2C1=O` (stereo not drawn) here?
Its IC50 is > 50 µM (not active).

Which IC50 [1] does the source give for `Cn1c(=O)n(C)c2cc(NS(=O)(=O)c3ccccc3)ccc21` here?
The IC50 was > 80 µM (inactive).

Which EC50 [2] does the source give for `CC/C(NCCCN(CC)CC)=C1/C(=O)NC(=O)N(C2CCCCC2)C1=O` here?
The EC50 was 0.171 µM (active).

And the EC50 [3]?
Its EC50 is > 60 µM (not active).

What about the AC50 [4] of the same compound?
The AC50 was > 20 µM (inactive).

For `CCCc1cc(=O)c2c(O)ccc(OC)c2o1`, which AC50 (HEK293) is on record?
The AC50 was > 350 µM (inactive).

Which IC50 (Prothrombin) does the source give for `COc1ccc(CNc2nc(-c3cccnc3)nn2C(=O)CC(C)C)cc1` here?
The IC50 was 0.336 µM (active).

Which results are given for `CCOC(=O)c1cnn(-c2ncnc3sc4c(c23)CCC4)c1N`?
EC50 [5]: 13.8 µM (active); EC50 [6]: 29.1 µM (active); EC50 (H4): 11.9 µM (active); IC50 (Prothrombin): > 50 µM (not active)

For `Cc1ccc(/C=C2\SC(=S)N(CCCC(=O)NC3CCCC3)C2=O)cc1`, which IC50 [1] is on record?
The IC50 was > 80 µM (inactive).

With `C=CCSc1nnc(NC(=O)c2ccc(Cl)nc2)s1` as the compound, how does the IC50 [7] read?
The IC50 was > 80 µM (inactive).

Which IC50 [1] does the source give for `Cc1c(CC(=O)NCCCC(=O)O)c(=O)oc2cc3c(cc12)CCC(C)(C)O3` here?
Its IC50 is > 80 µM (inactive).

With `O=C(COC(=O)CCc1ccccc1)Nc1ncc(Cl)cc1Cl` as the compound, how does the IC50 (Prothrombin) read?
Its IC50 is 8.03 µM (active).

What does the source list for `Cc1cc(S(=O)(=O)c2ccc(Cl)cc2)nc(S(=O)(=O)c2ccc(Cl)cc2)c1C#N`?
AC50 (HEK293): 9.23 µM (active); AC50 [8]: 2.83 µM (active); AC50 [9]: 25.9 µM (active); AC50 [10]: 21.2 µM (active); IC50 (Fatty acid synthase [11]): 7.57 µM (active); IC50 (Fatty acid synthase [12]): 10.4 µM (active)

Which IC50 (SUMO-activating enzyme) does the source give for `Cc1ccc2c(SCC(=O)NCc3ccco3)nc(-c3ccc(F)cc3)nc2c1` here?
The IC50 was 50.1 µM (active).

Which results are given for `COc1ccnc(CSC(=N)Nc2ccc(F)cc2)c1`?
IC50 [13]: > 47.1 µM (inactive); EC50 [14]: 32 µM (active)

What does the source list for `CCn1c2ccccc2c2cc(/C=N/n3cnnc3S)ccc21`?
CC50 [15]: 25.1 µM (active); IC50 [7]: > 80 µM (inactive); AC50 (HEK293): 10.7 µM (active); AC50 (Cytochrome P450 2C9): 31.6 µM (inconclusive)

Which IC50 (Leucine aminopeptidase) does the source give for `O=C(O)c1cccc(NC(=S)N/N=C/c2c[nH]c3ccccc23)c1` here?
The IC50 was 17.6 µM (active).

For `COc1ccccc1NC(=O)c1sc2nc(-c3ccco3)ccc2c1N`, which IC50 (SUMO-activating enzyme) is on record?
Its IC50 is 45.2 µM (active).

With `CN(C)CCNc1ncnc2oc(-c3ccccc3)c(-c3ccccc3)c12` as the compound, how does the AC50 [4] read?
Its AC50 is > 20 µM (inactive).

Which AC50 (HEK293) does the source give for `CC(C)(C)c1ccc(C(=O)Nc2nnc(SCC(=O)NCC3CCCO3)s2)cc1` (stereo not drawn) here?
The AC50 was 2.11 µM (active).

Which IC50 (Prothrombin) does the source give for `C=CCNC(=O)C(C#N)c1nc2ccccc2nc1N1CCN(Cc2ccccc2)CC1` (stereo not drawn) here?
The IC50 was > 50 µM (inconclusive).

Which IC50 [16] does the source give for `O=C(NC1CCCCCC1)c1ccc[nH]c1=S` here?
Its IC50 is 21.9 µM (active).

Which IC50 [13] does the source give for `CCOC(=O)c1c(N)sc(C(=O)N2CCCCC2)c1C` here?
Its IC50 is > 47.1 µM (inactive).

What about the EC50 [14] of the same compound?
Its EC50 is > 53 µM (inactive).

Which IC50 (Leucine aminopeptidase) does the source give for `Cc1sc(NC(=O)C2CCCCC2C(=O)O)c(C(N)=O)c1-c1ccccc1` (stereo not drawn) here?
Its IC50 is 11 µM (active).
